Experimental data: PMC10780244, “Antileishmanial Effect of 1,5- and 1,8-Substituted Fused Naphthyridines” (Molecules, 2023)

Key:
[1] = system: axenic iRFP-L. infantum amastigotes from bone marrow cells; assay: Axenic amastigote viability assay (iRFP fluorescence, first screening); type: cell-based; settings: Leishmania infantum, Bone marrow cell, cut-off 25 µM, 72 h, read-out: Axenic Amastigotes (concentration with inhibition)
Method: (§1) The 1,5- and 1,8-fused naphthyridine derivatives were evaluated as antileishmanial agents in assays using two forms of L. infantum amastigotes: axenic amastigotes recovered from bone marrow cells of infected BALB/c mice and intramacrophagic amastigotes obtained from splenic explants of the same subjects. The L. infantum strain used is a genetically modified strain previously engineered by our group to constitutively express the infrared protein iRFP from Rhodopseudomonas palustris bacteriophytochrome (iRFP L. infantum). This strain allows monitoring the viability of both forms of the parasite by quantifying the fluorescence emitted at 700 nm by the iRFP protein produced by living amastigotes.
(§2) Amastigotes obtained from mouse bone marrow cells were used to perform a first screening with the complete series of fused 1,5- and 1,8-naphthyridines. […] The toxicity of these selected compounds was assessed in non-infected splenic cells and the cytotoxic concentration (CC50) value obtained was used to calculate the selective index (SI). The oral tolerability of these same compounds was tested by calculating the viability of murine intestinal organoids exposed to two concentrations (50 and 25 µM).
To obtain iRFP-L. infantum axenic amastigotes, femur and tibia were carefully cut at both ends, and marrow cells were removed by passing PBS through the medullary cavity with a 29G needle. The bone marrow cell suspension was filtered through a 100 µm cell strainer and centrifuged at 3500× g for 10 min at room temperature. After centrifugation, cells were resuspended in amastigote culture medium: 15 mM KCl; 136 mM KH2PO4; 10 mM K2HPO4·3H2O; 0.5 mM MgSO4. 7H2O; 24 mM NaHCO3; 22 mM glucose; 1 mM glutamine, 1xRPMI 1640 vitamin mix (Sigma-Aldrich, Merck, Darmstadt, Germany), 10 mM folic acid, 100 mM adenosine, 1xRPMI amino acid mix (Sigma-Aldrich, Merck, Darmstadt, Germany), 5 mg/mL hemin, antibiotic cocktail, 25 mM MES and 10% FBS, and incubated at 37 °C.
To test the antileishmanial effect of naphthyridines on axenic amastigotes, 40 μL of a suspension containing 3 × 10^4 iRFP-L. infantum parasites per well were incubated with another 40 μL of the drugs dilutions in amastigote culture medium with 7.5% FBS. Incubations were performed in 384-well black microtiter plates with an optical bottom at 37 °C and 5% CO2 for 72 h. Solutions of 0.1% (v/v) DMSO and 10 μM AMB were used as negative and positive controls, respectively. The assays were performed by triplicate.
(§3) The viability of axenic and intramacrophage amastigotes was calculated measuring the fluorescence emitted at 700 nm by the iRFP protein from live parasites and recorded by an Odyssey infrared imaging system (Li-Cor, NE, USA). The fluorescence emitted by the negative control wells was considered 100% viability, whereas the fluorescence emitted by the positive control wells, was adjusted to 0% viability.

[2] = system: intramacrophagic iRFP-L. infantum amastigotes from murine spleens; assay: Ex vivo intramacrophagic amastigote viability assay (iRFP fluorescence); type: cell-based, Leishmania infantum; settings: for EC50: Leishmania infantum, ex vivo murine splenic explants, 72 h, read-out: Intracellular Amastigotes EC50; for antileishmanial activity against Leishmania amastigotes (in words): summary in discussion
Method: as §1, §2
Intramacrophagic amastigotes were obtained by cutting spleens into small pieces that were incubated for 25 min with 0.5 mL of collagenase D (2 mg/mL) (Merck, Darmstadt, Germany) dissolved in 4.5 mL buffer (10 mM HEPES, pH 7.4, 150 mM NaCl, 5 mM KCl, 1 mM MgCl2 and 1.8 mM CaCl2). The cell suspension was filtered through a 100 µm cell strainer. After erythrocyte lysis (150 mM NH4Cl, 1 mM KHCO3, 0.1 mM EDTA), splenocytes were centrifuged three times at 500× g for 7 min at 4 °C, with PBS washes between each centrifugation. The splenocyte suspension containing intramacrophagic amastigotes was resuspended in RPMI medium (Gibco, Fisher Scientific, Waltham, MA, USA) supplemented with 20% FBS, 1 mM sodium pyruvate, 24 mM NaHCO3, 2 mM L-glutamine, 1× RPMI vitamins, 25 mM HEPES and antibiotic cocktail.
For the ex vivo intramacrophagic amastigote assay, 40 μL of one-half or one-third serial dilutions of each diluted in supplemented RPMI medium, were added to black 384-well optical-bottom black plates containing 40 μL of murine splenocytes obtained as described above. Positive controls (containing 10 μM of AMB) and negative controls (containing 0.1% v/v DMSO) were included. The plates were incubated at 37 °C and 5% CO2, for a maximum period of 72 h and the assays were performed by triplicate.
as §3
Fluorescence emitted by intramacrophage amastigotes were plotted against the drug concentration using the nonlinear fit analysis provided by the Sigma Plot 10.1 statistical package to obtain EC50 values.

[3] = system: recombinant human DNA topoisomerase IB (hTopIB); parameters: method as in PMID 31229877, PMID 32279049, PMID 33962152; dose or concentration left out as unconfirmed; settings: cited from earlier work
[4] = system: two cancer cell lines; parameters: method as in PMID 31229877, PMID 32279049, PMID 33962152; settings: cited from earlier work
[5] = Cytotoxicity in uninfected murine splenic cells (alamarBlue); type: cell-based, mouse; settings: mouse; uninfected splenic cells, 72 h, alamarBlue; read-out: Mouse Splenic Macrophages CC50
Method: (§4) Amastigotes obtained from mouse bone marrow cells were used to perform a first screening with the complete series of fused 1,5- and 1,8-naphthyridines. […] The toxicity of these selected compounds was assessed in non-infected splenic cells and the cytotoxic concentration (CC50) value obtained was used to calculate the selective index (SI). The oral tolerability of these same compounds was tested by calculating the viability of murine intestinal organoids exposed to two concentrations (50 and 25 µM). In order to assess the in vitro safety of the naphthyridines, cytotoxicity assays were carried out in ex vivo splenic explants from uninfected mice, which were prepared as previously described to obtain intramacrophagic amastigotes. Cells were seeded at a density of 1 × 10^6 cells per well in 96-well plates containing the prediluted compounds and incubated at 37 °C and 5% CO2 during 72 h. AlamarBlue assay (Invitrogen, Fisher Scientific, Waltham, MA, USA) was used to estimate cell viability following manufacturer’s recommendations. The assays were performed by triplicate. Absorbance of viable cells vs. compound concentrations were fitted by nonlinear analysis using the Sigma Plot 10.1 statistical package to calculate the cytotoxic concentration 50 (CC50) values. Selectivity index (SI) was calculated as the ratio between CC50 and the EC50 values of intramacrophagic amastigotes.

[6] = system: mouse splenic macrophages; assay: as above; type: cell-based; settings: summary in discussion
Method: as §4

[7] = system: leishmanial DNA topoisomerase IB (LdTopIB); assay: Relaxation of supercoiled plasmid DNA assay; type: biochemical, Leishmania; settings: 100 μM of compounds, 1 min at 37 °C, in words
Method: page 2: DNA DMSO 6b8a8b8c9b10b11a13a13b14a7c8d15b Relaxationof supercoiled plasmid DNA assay. Each reaction contains one unit of purified leishmanial DNA topisomeraseIB enzyme (LdTopIB), 100 μM ofcompounds, 0.5μg of supercoiled […], 10 mM Tris-HCl buffer pH 7.5, 5 mM MgCl 2, 0.1 mM EDTA, 15 μg/mL bovine serum albumin, 150 mM KCl. Reaction mixtures were incubated 1 min at 37 °C and stopped by the addition of 4 μL loading buffer (5% sarkosyl, 0.12% bromophenol blue, 25% glycerol). The topoisomerswere resolved in 1% agarose gels by electrophoresis in 0.1 M Tris borate EDTA buffer (pH 8.0) at 2 V/cm for 16 h and visualized with UV illumination after ethidium bromide (0.5μg/mL) staining. […]

| Structure (SMILES) | minimal effective concentration [1] [µM] | EC50 [2] [µM] | also measured |
| --- | --- | --- | --- |
| c1ccc([C@@H]2c3ncccc3NC3c4ccccc4OCC32)cc1 (stereo partly shown) [Compound 4a] | > 25 |  |  |
| COc1ccc2c(n1)[C@@H](c1ccccc1)C1COc3ccccc3C1N2 (stereo partly shown) [Compound 4c] | > 25 |  |  |
| c1ccc(-c2c3c(nc4cccnc24)-c2ccccc2OC3)cc1 [Compound 5a] | > 25 |  |  |
| Brc1ccc2nc3c(c(-c4ccccc4)c2n1)COc1ccccc1-3 [Compound 5b] | > 25 |  |  |
| COc1ccc2nc3c(c(-c4ccccc4)c2n1)COc1ccccc1-3 [Compound 5c] | > 25 |  |  |
| O=C1Oc2ccccc2C2Nc3cccnc3[C@@H](c3ccccc3)C12 (stereo partly shown) [Compound 6a] | > 25 |  |  |
| COc1ccc2c(n1)[C@@H](c1ccccc1)C1C(=O)Oc3ccccc3C1N2 (stereo partly shown) [Compound 6c] | > 25 |  |  |
| O=c1oc2ccccc2c2nc3cccnc3c(-c3ccccc3)c12 [Compound 7a] | > 25 |  |  |
| O=c1oc2ccccc2c2nc3ccc(Br)nc3c(-c3ccccc3)c12 [Compound 7b] | > 25 |  |  |
| Cc1ccc(S(=O)(=O)N2Cc3c(nc4cccnc4c3-c3ccccc3)-c3ccccc32)cc1 [Compound 9a] | > 25 |  |  |
| COc1ccc2nc3c(c(-c4ccccc4)c2n1)CN(S(=O)(=O)c1ccc(C)cc1)c1ccccc1-3 [Compound 9c] | > 25 | > 20 |  |
| Cc1ccc(S(=O)(=O)N2Cc3c(nc4ccc(Br)nc4c3-c3ccccc3)-c3ccccc32)cc1 [Compound 9d] | > 25 | > 20 |  |
| c1ccc([C@@H]2c3cccnc3NC3c4ccccc4OCC32)cc1 (stereo partly shown) [Compound 10a] | > 25 | > 20 | antileishmanial activity against Leishmania amastigotes (in words) [2]: not effective against Leishmania amastigotes; inhibitory effect on DNA relaxation activity of hTopIB [3]: had an inhibitory effect on DNA relaxation activity; cytotoxic effects on two cancer cell lines (concentration range) [4]: 1 to 15 µM |
| Cc1ccc2c(c1)C1Nc3ncccc3[C@@H](c3ccccc3)C1CO2 (stereo partly shown) [Compound 10c] | > 25 | > 20 |  |
| Fc1ccc2c(c1)-c1nc3ncccc3c(-c3ccccc3)c1CO2 [Compound 11b] | > 25 | > 20 |  |
| COc1ccc(-c2c3c(nc4ncccc24)-c2ccccc2OC3)cc1 [Compound 11c] | > 25 | > 20 |  |
| O=C1Oc2ccccc2C2Nc3ncccc3[C@@H](c3ccccc3)C12 (stereo partly shown) [Compound 12a] | > 25 | > 20 |  |
| O=C1Oc2ccccc2C2Nc3ncc(Br)cc3[C@@H](c3ccccc3)C12 (stereo partly shown) [Compound 12b] | > 25 | > 20 |  |
| O=c1oc2ccc(F)cc2c2nc3ncccc3c(-c3ccccc3)c12 [Compound 13c] | > 25 | > 20 |  |
| Cc1ccc(S(=O)(=O)N2Cc3c(nc4ncccc4c3-c3ccccc3)-c3ccccc32)cc1 [Compound 15a] | < 25 | 67.4 ± 9.78 | SI ([2]; ratio CC50 (splenic macrophages) / EC50 (intramacrophagic amastigotes)): 0.1; antileishmanial activity against Leishmania amastigotes (in words) [2]: significant antileishmanial activity; CC50 at 72 h [5]: 8.78 ± 2.21 µM; toxicity (in words) [6]: significant toxicity; LdTopIB inhibitory activity [7]: did not show leishmanial DNA topoisomerase IB (LdTopIB) inhibitory activity; inhibitory effect on DNA relaxation activity of hTopIB [3]: had an inhibitory effect on DNA relaxation activity; cytotoxic effects on two cancer cell lines (concentration range) [4]: 1 to 15 µM |
